This is an account of results in patent US20240400555A1 (Initial Therapeutics, Inc., priority 2023, published 2024).

In general, IC50 refers to the concentration needed to halve the response being measured.

Each structure is given as a SMILES string.

For this assay, the system named is MV-4-11 cells. In words: Cell Viability Assay in MV-4-11 Cells. The assay is classed as cell-based. Conditions: Homo sapiens, MV4-11, 72 h, MV-4-11 cells, 72 h, Cell-Titer Glo; read-out: IC50. An outline of the steps:
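MV-4-11 cells at 7,000/well in IMDM with 10% FBS, exposed to compound for 72 h. Viability by CellTiter-Glo luminescence, normalized to DMSO as 100%, fitted with a four-parameter curve.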
Regarding `Cc1cccc2ccnc(N(C(=O)c3ccc(-c4cn(C)nn4)cc3F)[C@H]3CNCC[C@@H]3C)c12` [Example 441, 2-fluoro-N-(8-methyl-1-isoquinolyl)-N-[(3R, 4S)-4-methyl-3-piperidyl]-4-(1-methyltriazol-4-yl) benzamide], the IC50 came to 120 nM.

With `Cn1cc(-c2ccc(C(=O)N(c3nccc4sc(C(N)=O)cc34)[C@@H]3CCCNC3)c(F)c2)nn1` [Example 552, 4-[[2-fluoro-4-(1-methyltriazol-4-yl)benzoyl]-[(3R)-3-piperidyl]amino] thieno [3,2-c] pyridine-2-carboxamide], the IC50 was found to be 910 nM.

As for `Cc1cccc2ccnc(N(C(=O)c3ccc(Nc4ccccn4)nc3)[C@@H]3CCCNC3)c12` [Example 843, (R)—N-(8-methylisoquinolin-1-yl)-N-(piperidin-3-yl)-6-(pyridin-2-ylamino)nicotinamide], the half-inhibitory concentration (IC50) worked out at 2200 nM.

With `CCn1cc(-c2ccc(C(=O)N(c3nccc4cc(Cl)cc(C)c34)[C@@H]3CCCNC3)c(F)c2)nn1` [Example 711, N-(6-chloro-8-methyl-1-isoquinolyl)-4-(1-ethyltriazol-4-yl)-2-fluoro-N-[(3R)-3-piperidyl] benzamide], the IC50 came out at 74 nM.

In the case of `CCc1nnc(-c2ccc(C(=O)N(c3nccc4scc(C)c34)[C@@H]3CCCNC3)c(F)c2)o1` [Example 649, (R)-4-(5-ethyl-1,3,4-oxadiazol-2-yl)-2-fluoro-N-(3-methylthieno[3,2-c]pyridin-4-yl)-N-(piperidin-3-yl)benzamide], the IC50 was determined as 170 nM.

Regarding `O=C(c1ccc(-n2nnc3cccnc32)cc1F)N(c1nccc2sc(-c3cnccn3)cc12)[C@@H]1CCCNC1` [Example 451, 2-fluoro-N-[(3R)-3-piperidyl]-N-(2-pyrazin-2-ylthieno[3,2-c]pyridin-4-yl)-4-(triazolo[4,5-b]pyridin-3-yl)benzamide], the IC50 was found to be 250 nM.

With `Cn1cc(-c2ccc(C(=O)N(c3nccc4sc(C#N)cc34)[C@@H]3CCCNC3)c(F)c2)nn1` [Example 477, N-(2-cyanothieno [3,2-c]pyridin-4-yl)-2-fluoro-4-(1-methyltriazol-4-yl)-N-[(3R)-3-piperidyl] benzamide], the IC50 is 2800 nM.

Take `Cn1cc(-c2ccc(C(=O)N(c3nccc4cc(-c5ccnc(N)c5)ccc34)[C@@H]3CCCNC3)c(F)c2)nn1` [Example 491, (R)—N-(6-(2-aminopyridin-4-yl)isoquinolin-1-yl)-2-fluoro-4-(1-methyl-1H-1,2,3-triazol-4-yl)-N-(piperidin-3-yl)benzamide]: the IC50 stood at 460 nM.

As to `COCc1nnc(-c2ccc(C(=O)N(c3nccc4cc(Cl)cc(C)c34)[C@@H]3CCCNC3)cn2)s1` [Example 895, N-(6-chloro-8-methyl-1-isoquinolyl)-6-[5-(methoxymethyl)-1,3,4-thiadiazol-2-yl]-N-[(3R)-3-piperidyl]pyridine-3-carboxamide], the half-maximal inhibitory concentration (IC50) is 53 nM.

On to `COc1c(F)ccc2c(N(C(=O)c3ccc(-c4cn(C)nn4)cc3F)[C@@H]3CCCNC3)nccc12` [Example 874, 2-fluoro-N-(6-fluoro-5-methoxy-1-isoquinolyl)-4-(1-methyltriazol-4-yl)-N-[(3R)-3-piperidyl] benzamide], for which the IC50 was found to be 4000 nM.

As for `Cc1cccc2ccnc(N(C(=O)c3ccc(Nc4nccc(-n5cccn5)n4)cc3F)[C@@H]3CCCNC3)c12` [Example 723, (R)-4-((4-(1H-pyrazol-1-yl)pyrimidin-2-yl)amino)-2-fluoro-N-(8-methylisoquinolin-1-yl)-N-(piperidin-3-yl)benzamide], the IC50 came out at 81 nM.

Regarding `Cc1cccc2ccnc(N(C(=O)c3ccc(Nc4ncc5ccccc5n4)cc3F)[C@@H]3CCCNC3)c12` [Example 824, (R)-2-fluoro-N-(8-methylisoquinolin-1-yl)-N-(piperidin-3-yl)-4-(quinazolin-2-ylamino)benzamide], the IC50 was determined as 130 nM.

Turning to `Cc1cc(Cl)cc2ccnc(N(C(=O)c3ccc(-c4nnn(C)c4C)cc3)[C@@H]3CCCNC3)c12` [Example 771, (R)—N-(6-chloro-8-methylisoquinolin-1-yl)-4-(1,5-dimethyl-1H-1,2,3-triazol-4-yl)-N-(piperidin-3-yl)benzamide], the IC50 stood at 140 nM.

As to `O=C(c1ccc(Nc2ncccn2)cc1F)N(c1nccc2sc(-c3ccncc3)cc12)[C@@H]1CCCNC1` [Example 433], the concentration for half-maximal inhibition (IC50) was determined as 26 nM.

`[2H]C([2H])([2H])c1nnc(-c2ccc(C(=O)N(c3nccc4scc(C)c34)[C@@H]3CCCNC3)cc2)s1` [Example 894, N-(3-methylthieno[3,2-c]pyridin-4-yl)-N-[(3R)-3-piperidyl]-4-[5-(trideuteriomethyl)-1,3,4-thiadiazol-2-yl]benzamide]: the IC50 is 130 nM.

Consider `Cc1nnc(-c2ccc(C(=O)N(c3nccc4scc(C)c34)[C@@H]3CCCNC3)cn2)s1` [Example 629, 6-(5-methyl-1,3,4-thiadiazol-2-yl)-N-(3-methylthieno[3,2-c]pyridin-4-yl)-N-[(3R)-3-piperidyl]pyridine-3-carboxamide], for which the half-inhibitory concentration (IC50) worked out at 160 nM.

Consider `[2H]C([2H])([2H])c1nnc(-c2ccc(C(=O)N(c3nccc4cc(OC)cc(C)c34)[C@@H]3CCCNC3)cc2)s1` [Example 908, N-(6-methoxy-8-methyl-1-isoquinolyl)-N-[(3R)-3-piperidyl]-4-[5-(trideuteriomethyl)-1,3,4-thiadiazol-2-yl]benzamide], for which the concentration for half-maximal inhibition (IC50) is 77 nM.

As to `CC(C)Cn1cc(-c2cc3c(N(C(=O)c4ccc(-n5nnc6cccnc65)cc4F)[C@@H]4CCCNC4)nccc3s2)nn1` [Example 415, 2-fluoro-N-[2-(1-isobutyltriazol-4-yl)thieno[3,2-c]pyridin-4-yl]-N-[(3R)-3-piperidyl]-4-(triazolo[4,5-b]pyridin-3-yl)benzamide], the IC50 stood at 1200 nM.

As for `N#Cc1ccc(-c2cc3c(N(C(=O)c4ccc(-n5nnc6cccnc65)cc4F)[C@@H]4CCCNC4)nccc3s2)cc1` [Example 387, N-[2-(4-cyanophenyl)thieno[3,2-c]pyridin-4-yl]-2-fluoro-N-[(3R)-3-piperidyl]-4-(triazolo[4,5-b]pyridin-3-yl)benzamide], the IC50 stood at 300 nM.

As to `Cn1cc(-c2ccc(C(=O)N(c3nccc4sc(-c5ccnc(N)n5)cc34)[C@@H]3CCCNC3)c(F)c2)nn1` [Example 484, N-[2-(2-aminopyrimidin-4-yl)thieno[3,2-c]pyridin-4-yl]-2-fluoro-4-(1-methyltriazol-4-yl)-N-[(3R)-3-piperidyl]benzamide], the IC50 turned out to be 930 nM.

`Cc1cccc2ccnc(N(C(=O)c3ccc(Nc4nccc(N5[C@H](C)COC[C@@H]5C)n4)cc3F)[C@@H]3CCCNC3)c12` [Example 940, 4-((4-((3R,5S)-3,5-dimethylmorpholino)pyrimidin-2-yl)amino)-2-fluoro-N-(8-methylisoquinolin-1-yl)-N—((R)-piperidin-3-yl)benzamide]: the half-inhibitory concentration (IC50) is 34 nM.

As to `O=C(c1ccc(-n2nnc3cccnc32)cc1F)N(c1cc(/C=C/c2cccnc2)ccn1)[C@@H]1CCCNC1` [Example 431, 2-fluoro-N-[(3R)-3-piperidyl]-N-[4-[(E)-2-(3-pyridyl)vinyl]-2-pyridyl]-4-(triazolo[4,5-b]pyridin-3-yl)benzamide], the 50% inhibitory concentration (IC50) turned out to be 2300 nM.

As for `Cc1cccc2ccnc(N(C(=O)c3ccc(-c4cn(C)nn4)cn3)[C@@H]3CCCNC3)c12` [Example 809, (R)-5-(1-methyl-1H-1,2,3-triazol-4-yl)-N-(8-methylisoquinolin-1-yl)-N-(piperidin-3-yl)picolinamide], the IC50 stood at 200 nM.

In the case of `[2H]C([2H])([2H])Oc1cc(C)c2c(N(C(=O)c3ccc(-c4nnc(C)s4)nc3)[C@@H]3CCCNC3)nccc2c1` [Example 909], the 50% inhibitory concentration (IC50) came to 62 nM.

`COc1ccc2c(N(C(=O)c3ccc(-c4nnc(C)s4)cc3F)[C@@H]3CCCNC3)nccc2c1` [Example 762, (R)-2-fluoro-N-(6-methoxyisoquinolin-1-yl)-4-(5-methyl-1,3,4-thiadiazol-2-yl)-N-(piperidin-3-yl)benzamide]: the concentration for half-maximal inhibition (IC50) was found to be 620 nM.

As to `Cc1cccc2ccnc(N(C(=O)c3ccc(Nc4nccc(CN5CCCC5)n4)cc3F)[C@@H]3CCCNC3)c12` [Example 961, (R)-2-fluoro-N-(8-methylisoquinolin-1-yl)-N-(piperidin-3-yl)-4-((4-(pyrrolidin-1-ylmethyl)pyrimidin-2-yl)amino)benzamide], the half-inhibitory concentration (IC50) is 38 nM.

With `Cc1cccc2ccnc(N(C(=O)c3ccc(Nc4nccc(N5CCC(c6ccncc6)CC5)n4)cc3F)[C@@H]3CCCNC3)c12` [Example 962, (R)-2-fluoro-N-(8-methylisoquinolin-1-yl)-N-(piperidin-3-yl)-4-((4-(4-(pyridin-4-yl)piperidin-1-yl)pyrimidin-2-yl)amino)benzamide], the half-maximal inhibitory concentration (IC50) is 15 nM.

Take `O=C(c1ccc(Nc2ncc(F)cn2)cc1F)N(c1nccc2cc(F)ccc12)[C@@H]1CCCNC1` [Example 787, (R)-2-fluoro-N-(6-fluoroisoquinolin-1-yl)-4-((5-fluoropyrimidin-2-yl)amino)-N-(piperidin-3-yl)benzamide]: the IC50 came out at 3000 nM.

Regarding `CCc1nnc(-c2ccc(C(=O)N(c3nccc4scc(C)c34)[C@@H]3CCCNC3)c(F)c2)s1` [Example 698, (R)-4-(5-ethyl-1,3,4-thiadiazol-2-yl)-2-fluoro-N-(3-methylthieno[3,2-c]pyridin-4-yl)-N-(piperidin-3-yl)benzamide], the IC50 amounted to 170 nM.

As for `Cc1ncc(-c2cc3c(N(C(=O)c4ccc(-n5nnc6cccnc65)cc4F)[C@@H]4CCCNC4)nccc3s2)s1` [Example 443, 2-fluoro-N-[2-(2-methylthiazol-5-yl)thieno[3,2-c]pyridin-4-yl]-N-[(3R)-3-piperidyl]-4-(triazolo[4,5-b]pyridin-3-yl)benzamide], the IC50 was 300 nM.

`O=C(c1ccc(-n2nnc3cccnc32)cc1F)N(c1nccc2cc(-c3ncco3)ccc12)[C@@H]1CCCNC1` [Example 366, (R)-4-(3H-[1,2,3]triazolo[4,5-b]pyridin-3-yl)-2-fluoro-N-(6-(oxazol-2-yl)isoquinolin-1-yl)-N-(piperidin-3-yl)benzamide]: the IC50 is 290 nM.
